Measured values from publication PMC9516332 (Frontiers in Oncology, 2022).
Where two headings read alike, the source gives them in different places.

Key:
Assay in all cases: Kinase panel profiling at 1 µmol/L (MSA or IMAP), percentage inhibition
Assay type in all cases: biochemical
[1] = molecular target: panel of 255 wild-type kinases (Homo sapiens, UniProt P31749); conditions: AKT1 kinase assay; 1 µmol/L single concentration; read-out: %-inhibition AKT1
[2] = molecular target: T1, panel of 255 wild-type kinases (Homo sapiens, UniProt Q96PY6); conditions: NEK1; 1 µmol/L single concentration; read-out: %-inhibition, NEK1
T1 sequence (Q96PY6 1-1258): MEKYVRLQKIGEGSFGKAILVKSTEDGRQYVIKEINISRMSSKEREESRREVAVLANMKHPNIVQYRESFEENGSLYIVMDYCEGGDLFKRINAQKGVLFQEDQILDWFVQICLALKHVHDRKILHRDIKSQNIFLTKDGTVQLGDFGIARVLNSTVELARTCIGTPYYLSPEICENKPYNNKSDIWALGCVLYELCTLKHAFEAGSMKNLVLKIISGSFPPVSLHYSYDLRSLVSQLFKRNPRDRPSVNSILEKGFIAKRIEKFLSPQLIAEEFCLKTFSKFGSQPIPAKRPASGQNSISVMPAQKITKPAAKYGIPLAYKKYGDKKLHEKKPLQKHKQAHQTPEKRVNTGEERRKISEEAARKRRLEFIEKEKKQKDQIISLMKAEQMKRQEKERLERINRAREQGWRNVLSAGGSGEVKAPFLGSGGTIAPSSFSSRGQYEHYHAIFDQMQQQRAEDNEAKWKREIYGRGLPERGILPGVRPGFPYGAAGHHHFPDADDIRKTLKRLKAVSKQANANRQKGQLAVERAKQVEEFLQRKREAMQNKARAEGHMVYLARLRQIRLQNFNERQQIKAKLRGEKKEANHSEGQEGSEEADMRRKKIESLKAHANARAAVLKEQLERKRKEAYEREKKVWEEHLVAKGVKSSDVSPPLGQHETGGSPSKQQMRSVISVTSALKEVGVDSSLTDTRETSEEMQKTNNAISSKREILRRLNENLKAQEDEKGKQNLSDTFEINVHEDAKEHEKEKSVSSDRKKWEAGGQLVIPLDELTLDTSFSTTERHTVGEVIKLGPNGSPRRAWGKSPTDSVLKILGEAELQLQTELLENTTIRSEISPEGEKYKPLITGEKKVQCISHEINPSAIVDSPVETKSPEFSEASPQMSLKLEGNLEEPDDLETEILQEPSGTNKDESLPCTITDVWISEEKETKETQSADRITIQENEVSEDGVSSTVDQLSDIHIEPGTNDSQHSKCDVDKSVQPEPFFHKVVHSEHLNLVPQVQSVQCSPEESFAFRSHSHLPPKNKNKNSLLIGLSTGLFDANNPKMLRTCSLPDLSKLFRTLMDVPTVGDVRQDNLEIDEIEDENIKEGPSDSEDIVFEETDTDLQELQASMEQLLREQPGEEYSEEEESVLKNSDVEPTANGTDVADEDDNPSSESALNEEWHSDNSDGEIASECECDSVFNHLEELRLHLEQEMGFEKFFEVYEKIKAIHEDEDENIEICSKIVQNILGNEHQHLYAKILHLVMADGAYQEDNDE

[3] = molecular target: T2, panel of 255 wild-type kinases (Homo sapiens, UniProt O14965); conditions: 1 µmol/L single concentration
T2 sequence (O14965 1-403): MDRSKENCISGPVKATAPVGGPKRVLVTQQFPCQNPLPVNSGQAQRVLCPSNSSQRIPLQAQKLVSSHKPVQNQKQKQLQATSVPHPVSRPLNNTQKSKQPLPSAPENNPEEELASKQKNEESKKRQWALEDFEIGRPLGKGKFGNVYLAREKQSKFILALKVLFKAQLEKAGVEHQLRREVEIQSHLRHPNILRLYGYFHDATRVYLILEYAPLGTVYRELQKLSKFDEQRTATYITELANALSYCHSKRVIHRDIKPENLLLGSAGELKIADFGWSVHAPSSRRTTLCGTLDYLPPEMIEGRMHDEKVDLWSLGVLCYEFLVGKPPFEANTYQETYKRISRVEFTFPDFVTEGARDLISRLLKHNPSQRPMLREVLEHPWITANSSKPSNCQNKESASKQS

[4] = system: panel of 255 wild-type kinases; conditions: for %-inhibition at 1 µmol/L, FYN [isoform b]: kinase FYN [isoform b]; for %-inhibition at 1 µmol/L, FYN [isoform b] / %-inhibition at 1 µmol/L, LYNb / %-inhibition at 1 µmol/L, PKCβ2 / %-inhibition at 1 µmol/L, SRM: 1 µmol/L single concentration; for %-inhibition at 1 µmol/L, LYNb: kinase LYNb; for %-inhibition at 1 µmol/L, PKCβ2: kinase PKCβ2; for %-inhibition at 1 µmol/L, SRM: kinase SRM; for number of the 255 profiled kinases inhibited by more than 50%: 1 µmol/L inhibitor
[5] = molecular target: T3, panel of 255 wild-type kinases (Homo sapiens, UniProt O14920); conditions: kinase IKKβ; 1 µmol/L single concentration; read-out: %-inhibition at 1 µmol/L, IKKβ
T3 sequence (O14920 1-756): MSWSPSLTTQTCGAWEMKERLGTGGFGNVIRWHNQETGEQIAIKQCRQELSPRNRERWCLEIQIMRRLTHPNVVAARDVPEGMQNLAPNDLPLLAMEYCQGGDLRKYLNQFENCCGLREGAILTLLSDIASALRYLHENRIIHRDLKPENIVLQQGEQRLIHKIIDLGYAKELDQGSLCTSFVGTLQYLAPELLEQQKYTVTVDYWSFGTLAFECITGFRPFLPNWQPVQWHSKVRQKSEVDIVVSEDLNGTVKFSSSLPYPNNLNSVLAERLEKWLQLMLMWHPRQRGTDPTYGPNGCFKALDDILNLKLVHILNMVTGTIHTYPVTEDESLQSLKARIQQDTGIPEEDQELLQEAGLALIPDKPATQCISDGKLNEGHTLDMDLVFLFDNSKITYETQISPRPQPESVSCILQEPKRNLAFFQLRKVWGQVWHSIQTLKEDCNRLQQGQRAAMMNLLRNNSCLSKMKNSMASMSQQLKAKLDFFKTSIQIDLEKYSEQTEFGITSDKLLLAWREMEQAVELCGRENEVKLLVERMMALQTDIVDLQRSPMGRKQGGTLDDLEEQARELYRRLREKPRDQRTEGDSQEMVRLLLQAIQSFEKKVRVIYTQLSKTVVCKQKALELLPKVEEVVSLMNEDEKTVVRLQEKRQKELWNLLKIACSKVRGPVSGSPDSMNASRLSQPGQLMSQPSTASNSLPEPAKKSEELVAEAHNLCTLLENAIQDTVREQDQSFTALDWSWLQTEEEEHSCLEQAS

[6] = molecular target: panel of 255 wild-type kinases (Homo sapiens, UniProt Q15119); conditions: kinase PDHK2; 1 µmol/L single concentration; read-out: %-inhibition at 1 µmol/L, PDHK2
[7] = AurA kinase assay, read-out: %-inhibition AurA
[8] = AurA/TPX2 kinase assay, read-out: %-inhibition AurA/TPX2

Row | SMILES | inhibition at 1 µM [1] | inhibition at 1 µM [2] | inhibition at 1 µM [3, 7] | inhibition at 1 µM [3, 8] | %-inhibition at 1 µmol/L, FYN [isoform b] [4] | %-inhibition at 1 µmol/L, LYNb [4] | %-inhibition at 1 µmol/L, PKCβ2 [4] | %-inhibition at 1 µmol/L, SRM [4] | inhibition at 1 µM [5] | inhibition at 1 µM [6] | number of the 255 profiled kinases inhibited by more than 50% [4]
1 | C[C@H]1Oc2cc(cnc2N)-c2c(nn(C)c2C#N)CN(C)C(=O)c2ccc(F)cc21 [lorlatinib] | -4% | 0.741% | 21% | 29% | 4% | 22% | 4% | 59% | -0.377% | 1.88% | –
2 | CCN1C(=O)N(c2c(F)c(OC)cc(OC)c2F)Cc2cnc3[nH]c(CN4CCOCC4)cc3c21 [pemigatinib] | -12% | 10% | 11% | -4.43% | 14% | 64% | -1.57% | -3.44% | -1.22% | 3.53% | –
3 | FC(F)(F)c1ccc(CNc2ccc(Cc3c[nH]c4ncc(Cl)cc34)cn2)cn1 [pexidartinib] | -20% | -1.38% | 44% | 21% | 1.3% | 19% | 3.47% | 0.409% | 5% | 4% | –
4 | CO[C@]1(C(=O)N[C@@H](C)c2ccc(-n3cc(F)cn3)nc2)CC[C@H](c2nc(C)cc(Nc3cc(C)[nH]n3)n2)CC1 [pralsetinib] | -12% | -5% | 73% | 70% | 30% | 89% | -1.78% | 13% | 32% | 1.11% | 71
5 | CCn1c(=O)c(-c2cc(NC(=O)Nc3ccccc3)c(F)cc2Br)cc2cnc(NC)cc21 [ripretinib] | -6% | -1.3% | -2% | -0.807% | 33% | 85% | -0.488% | 32% | 21% | 0.884% | –
6 | COc1ccc(CN2C3CC2CN(c2ccc(-c4cc(OCC(C)(C)O)cn5ncc(C#N)c45)cn2)C3)cn1 [selpercatinib] | -10% | -0.568% | 66% | 71% | 10% | 52% | -1.06% | -1.55% | -2.15% | -0.608% | 46
7 | Cn1cnc2c(F)c(Nc3ccc(Br)cc3Cl)c(C(=O)NOCCO)cc21 [selumetinib] | -11% | -5% | -5.67% | -8% | -1.85% | 7% | -2% | -1.41% | 1.34% | 2.47% | –
8 | Cc1cc(Nc2ncnc3ccc(NC4=NC(C)(C)CO4)cc23)ccc1Oc1ccn2ncnc2c1 [tucatinib] | -9% | 1.77% | -1.53% | -9% | -1.06% | 6% | -1.5% | 2.77% | 1% | -2% | –
9 | C=CC(=O)N1CCC([C@@H]2CCNc3c(C(N)=O)c(-c4ccc(Oc5ccccc5)cc4)nn32)CC1 [zanubrutinib] | -13% | -4% | -1.42% | -0.885% | 22% | 55% | -1.66% | 58% | -0.69% | 5% | –
